Results: the NIST ThermoML archive (doi:10.1016/j.fluid.2013.11.028)

Legend:
[1] = wn = mass fraction of the nth substance listed; details: 101 kPa, Liquid; for viscosity: Falling or rolling sphere viscometry; for binary diffusion coefficient: Taylor dispersion method; for mass density: Vibrating tube method
[2] = Liquid; for mass density: 101 kPa, Vibrating tube method; for viscosity: 101.33 kPa, Falling or rolling sphere viscometry
[3] = xn = mol fraction of the nth substance listed; details: 101 kPa, Liquid, Taylor dispersion method, x1 = 0.2

NCCNCCN [di(2-aminoethyl)amine] + O
[1]
Details | binary diffusion coefficient [m2/s] | mass density [kg/m3] | viscosity [mPa·s]
303.15 K, w1 = 0 | 7.45e-10 | – | –
303.15 K, w1 = 0.1 | 7.01e-10 | 998.5 | 1.211
303.15 K, w1 = 0.2 | 6.64e-10 | 1002.9 | 2.011
303.15 K, w1 = 0.3 | 6.14e-10 | 1009.8 | 3.572
303.15 K, w1 = 0.4 | 5.57e-10 | 1016.2 | 7.31
303.15 K, w1 = 1 | – | 942.1 | –
308.15 K, w1 = 0 | 8.43e-10 | – | –
308.15 K, w1 = 0.1 | 7.93e-10 | 996.7 | 1.08
308.15 K, w1 = 0.2 | 7.61e-10 | 1000.8 | 1.751
308.15 K, w1 = 0.3 | 7.14e-10 | 1007.2 | 3.015
308.15 K, w1 = 0.4 | 6.6e-10 | 1013 | 5.915
308.15 K, w1 = 1 | – | 937.9 | –
313.15 K, w1 = 0 | 9.5e-10 | – | –
313.15 K, w1 = 0.1 | 8.95e-10 | 994.8 | 0.97
313.15 K, w1 = 0.2 | 8.52e-10 | 998.7 | 1.54
313.15 K, w1 = 0.3 | 8.13e-10 | 1004.5 | 2.582
313.15 K, w1 = 0.4 | 7.41e-10 | 1009.9 | 4.859
313.15 K, w1 = 1 | – | 933.8 | –
318.15 K, w1 = 0 | 1.03e-09 | – | –
318.15 K, w1 = 0.1 | 1.01e-09 | 992.8 | 0.88
318.15 K, w1 = 0.2 | 9.38e-10 | 996.3 | 1.366
318.15 K, w1 = 0.3 | 8.82e-10 | 1001.8 | 2.234
318.15 K, w1 = 0.4 | 8.55e-10 | 1006.7 | 4.049
318.15 K, w1 = 1 | – | 929.6 | –
323.15 K, w1 = 0 | 1.19e-09 | – | –
323.15 K, w1 = 0.1 | 1.12e-09 | 990.6 | 0.799
323.15 K, w1 = 0.2 | 1.06e-09 | 993.9 | 1.221
323.15 K, w1 = 0.3 | 1.01e-09 | 998.9 | 1.95
323.15 K, w1 = 0.4 | 9.61e-10 | 1003.4 | 3.302
323.15 K, w1 = 1 | – | 925.5 | –

CN(C)CCCN(C)C [N,N,N',N'-tetramethyl-1,3-propanediamine] + O
[1]
Details | binary diffusion coefficient [m2/s] | mass density [kg/m3] | viscosity [mPa·s]
303.15 K, w1 = 0 | 7.01e-10 | – | –
303.15 K, w1 = 0.1 | 4.86e-10 | 983.3 | 1.345
303.15 K, w1 = 0.2 | 3.74e-10 | 972.5 | 2.335
303.15 K, w1 = 0.3 | 3.05e-10 | 960.1 | 3.923
303.15 K, w1 = 0.4 | 2.56e-10 | 944.6 | 6.081
303.15 K, w1 = 1 | – | 774.8 | –
308.15 K, w1 = 0 | 7.99e-10 | – | –
308.15 K, w1 = 0.1 | 5.53e-10 | 981.4 | 1.183
308.15 K, w1 = 0.2 | 4.41e-10 | 969.8 | 1.985
308.15 K, w1 = 0.3 | 3.57e-10 | 956.7 | 3.192
308.15 K, w1 = 0.4 | 2.89e-10 | 940.6 | 4.853
308.15 K, w1 = 1 | – | 770.9 | –
313.15 K, w1 = 0 | 9.04e-10 | – | –
313.15 K, w1 = 0.1 | 6.16e-10 | 979.3 | 1.051
313.15 K, w1 = 0.2 | 4.83e-10 | 967 | 1.709
313.15 K, w1 = 0.3 | 4.09e-10 | 953.1 | 2.669
313.15 K, w1 = 0.4 | 3.45e-10 | 936.6 | 3.838
313.15 K, w1 = 1 | – | 767.4 | –
318.15 K, w1 = 0 | 1.01e-09 | – | –
318.15 K, w1 = 0.1 | 6.82e-10 | 977 | 0.941
318.15 K, w1 = 0.2 | 5.41e-10 | 964 | 1.488
318.15 K, w1 = 0.3 | 4.58e-10 | 949.5 | 2.264
318.15 K, w1 = 0.4 | 3.82e-10 | 932.5 | 3.182
318.15 K, w1 = 1 | – | 765 | –
323.15 K, w1 = 0 | 1.08e-09 | – | –
323.15 K, w1 = 0.1 | 7.48e-10 | 974.6 | 0.846
323.15 K, w1 = 0.2 | 6.07e-10 | 961 | 1.311
323.15 K, w1 = 0.3 | 5.14e-10 | 945.8 | 1.945
323.15 K, w1 = 0.4 | 4.32e-10 | 928.4 | 2.681
323.15 K, w1 = 1 | – | 761.4 | –

CN(C)CCCN(C)C [N,N,N',N'-tetramethyl-1,3-propanediamine]
[2]
Details | mass density [kg/m3]
303.15 K | 774.8
308.15 K | 770.9
313.15 K | 767.4
318.15 K | 765
323.15 K | 761.4

CN(C)CCN(C)C [N,N,N',N'-tetramethyl-1,2-diaminoethane]
[2]
Details | mass density [kg/m3]
303.15 K | 767.3
308.15 K | 762.9
313.15 K | 759.1
318.15 K | 754.7
323.15 K | 750.3

CNCCCN [N-methyl-1,3-diaminopropane]
[2]
Details | mass density [kg/m3]
303.15 K | 849.1
308.15 K | 844.7
313.15 K | 840.3
318.15 K | 835.9
323.15 K | 831.5

O [water]
[2]
Details | viscosity [mPa·s]
303.15 K | 0.789
308.15 K | 0.714
313.15 K | 0.651
318.15 K | 0.598
323.15 K | 0.541

NCCNCCN [di(2-aminoethyl)amine]
[2]
Details | mass density [kg/m3]
303.15 K | 942.1
308.15 K | 937.9
313.15 K | 933.8
318.15 K | 929.6
323.15 K | 925.5

OCCO [1,2-ethanediol] + O
[3]
Details | binary diffusion coefficient [m2/s]
303.15 K | 8.21e-10
308.15 K | 9.03e-10
313.15 K | 9.98e-10
318.15 K | 1.09e-09
323.15 K | 1.2e-09

CN(C)CCN(C)C [N,N,N',N'-tetramethyl-1,2-diaminoethane] + O
[1]
Details | binary diffusion coefficient [m2/s] | mass density [kg/m3] | viscosity [mPa·s]
303.15 K, w1 = 0 | 7.34e-10 | – | –
303.15 K, w1 = 0.1 | 5.61e-10 | 982.9 | 1.34
303.15 K, w1 = 0.2 | 4.62e-10 | 972.6 | 2.338
303.15 K, w1 = 0.3 | 3.74e-10 | 962.1 | 3.963
303.15 K, w1 = 0.4 | 3.12e-10 | 947.8 | 6.207
303.15 K, w1 = 1 | – | 767.3 | –
308.15 K, w1 = 0 | 8.35e-10 | – | –
308.15 K, w1 = 0.1 | 6.29e-10 | 981 | 1.179
308.15 K, w1 = 0.2 | 5.25e-10 | 970 | 1.983
308.15 K, w1 = 0.3 | 4.4e-10 | 958.6 | 3.243
308.15 K, w1 = 0.4 | 3.66e-10 | 943.7 | 4.925
308.15 K, w1 = 1 | – | 762.9 | –
313.15 K, w1 = 0 | 9.38e-10 | – | –
313.15 K, w1 = 0.1 | 7.16e-10 | 979 | 1.046
313.15 K, w1 = 0.2 | 5.74e-10 | 967.3 | 1.704
313.15 K, w1 = 0.3 | 4.91e-10 | 955.1 | 2.705
313.15 K, w1 = 0.4 | 4.25e-10 | 939.5 | 3.941
313.15 K, w1 = 1 | – | 759.1 | –
318.15 K, w1 = 0 | 1.05e-09 | – | –
318.15 K, w1 = 0.1 | 8.01e-10 | 976.7 | 0.933
318.15 K, w1 = 0.2 | 6.38e-10 | 964.4 | 1.481
318.15 K, w1 = 0.3 | 5.53e-10 | 951.5 | 2.287
318.15 K, w1 = 0.4 | 4.61e-10 | 935.3 | 3.205
318.15 K, w1 = 1 | – | 754.7 | –
323.15 K, w1 = 0 | 1.18e-09 | – | –
323.15 K, w1 = 0.1 | 9.51e-10 | 974.3 | 0.839
323.15 K, w1 = 0.2 | 7.5e-10 | 961.4 | 1.301
323.15 K, w1 = 0.3 | 6.29e-10 | 947.8 | 1.96
323.15 K, w1 = 0.4 | 5.31e-10 | 931 | 2.682
323.15 K, w1 = 1 | – | 750.3 | –

CNCCCN [N-methyl-1,3-diaminopropane] + O
[1]
Details | binary diffusion coefficient [m2/s] | mass density [kg/m3] | viscosity [mPa·s]
303.15 K, w1 = 0 | 8.45e-10 | – | –
303.15 K, w1 = 0.1 | 7.35e-10 | 988.5 | 1.231
303.15 K, w1 = 0.2 | 6.87e-10 | 983.9 | 2.005
303.15 K, w1 = 0.3 | 6.4e-10 | 980.7 | 3.41
303.15 K, w1 = 0.4 | 6.08e-10 | 975.9 | 5.515
303.15 K, w1 = 1 | – | 849.1 | –
308.15 K, w1 = 0 | 9.56e-10 | – | –
308.15 K, w1 = 0.1 | 8.63e-10 | 986.7 | 1.09
308.15 K, w1 = 0.2 | 7.69e-10 | 981.6 | 1.731
308.15 K, w1 = 0.3 | 7.26e-10 | 977.7 | 2.823
308.15 K, w1 = 0.4 | 6.92e-10 | 972.2 | 4.451
308.15 K, w1 = 1 | – | 844.7 | –
313.15 K, w1 = 0 | 1.05e-09 | – | –
313.15 K, w1 = 0.1 | 9.36e-10 | 984.7 | 0.976
313.15 K, w1 = 0.2 | 8.72e-10 | 979.1 | 1.512
313.15 K, w1 = 0.3 | 8.25e-10 | 974.5 | 2.391
313.15 K, w1 = 0.4 | 7.77e-10 | 968.4 | 3.66
313.15 K, w1 = 1 | – | 840.3 | –
318.15 K, w1 = 0 | 1.18e-09 | – | –
318.15 K, w1 = 0.1 | 1.05e-09 | 982.6 | 0.887
318.15 K, w1 = 0.2 | 9.72e-10 | 976.4 | 1.333
318.15 K, w1 = 0.3 | 9.22e-10 | 971.3 | 2.059
318.15 K, w1 = 0.4 | 8.73e-10 | 964.6 | 2.979
318.15 K, w1 = 1 | – | 835.9 | –
323.15 K, w1 = 0 | 1.31e-09 | – | –
323.15 K, w1 = 0.1 | 1.18e-09 | 980.2 | 0.808
323.15 K, w1 = 0.2 | 1.09e-09 | 973.7 | 1.184
323.15 K, w1 = 0.3 | 1.03e-09 | 967.9 | 1.769
323.15 K, w1 = 0.4 | 9.77e-10 | 960.7 | 2.525
323.15 K, w1 = 1 | – | 831.5 | –
